Source: patent publication EP2319525A1, “Composition for treating insulin resistance” (Universitätsklinikum Hamburg-Eppendorf, priority 2009, dated 2011)
Side chains are listed from the residue outwards. Peptide text beside a SMILES is read from it. * marks the point of attachment. Nicotinoyl = O=C(c1cccnc1)*; Cbz = O=C(OCc1ccccc1)*

Key:
Format in all cases: cell-based, rodent
L6 myotubes [1] = assay: Uptake of H-3-labeled 2-Deoxy-D-glucose in differentiated L6 myotubes, short-term incubation (20 min + 10 min); details: CGP-42112A 10^-8 mol/L, alone and in combination with losartan 10^-7 mol/L
Description: The data presented below were generated in the rodent myoblast cell line L6 (ATCC #CRL-1458). […] L6 myotubes express both the AT-1 and the AT-2 receptor at relevant levels making these cells an ideal model to test the interference of both receptors with basal and insulin-mediated glucose uptake. L6 myoblasts were maintained as proliferating myoblasts in DMEM high glucose medium supplemented with 10% FCS, 4 mM L-glutamine, 1 mM pyruvate at 37°C in the presence of 5% CO2. The seeding density used for the experiments was 2 x 10^4 cells/cm^2 on 1% gelatincoated dishes. To induce differentiation of myoblasts into myotubes, 90-100% confluent cultures (cultured on standard 6-well plates) were switched to DMEM supplemented with 2% adult horse serum. […] The uptake of H-3-labeled 2-Deoxy-D-glucose (GE Healthcare Biosciences), which cannot undergo further glycolysis, was measured as follows: • H-3-labeled 2-Deoxy-D-glucose uptake in the differentiated myotubes was analysed as described previously ([…] et al., Diabetologia (2005); 48 (1) :132-9) with minor modifications. […] Cell lysates were transferred to scintillation vials for radioactivity counting. Non-specific uptake was determined in the presence of cytochalasin B (10 μmol/L) and was subtracted from all values. […] The uptake of H-3-labeled 2-Deoxy-D-glucose was measured as described in Example 1 above.

L6 myotubes [2] = assay: Long-term (24 hours) stimulation: basal and insulin-mediated uptake of H-3-labeled 2-Deoxy-D-glucose in L6 myotubes
Description: (§1) The data presented below were generated in the rodent myoblast cell line L6 (ATCC #CRL-1458). […] L6 myotubes express both the AT-1 and the AT-2 receptor at relevant levels making these cells an ideal model to test the interference of both receptors with basal and insulin-mediated glucose uptake. L6 myoblasts were maintained as proliferating myoblasts in DMEM high glucose medium supplemented with 10% FCS, 4 mM L-glutamine, 1 mM pyruvate at 37°C in the presence of 5% CO2. The seeding density used for the experiments was 2 x 10^4 cells/cm^2 on 1% gelatincoated dishes. To induce differentiation of myoblasts into myotubes, 90-100% confluent cultures (cultured on standard 6-well plates) were switched to DMEM supplemented with 2% adult horse serum. Myoblast growth and myotube formation were examined using phase-contrast microscopy. The medium was changed every 2 days, and differentiation was allowed to continue for 10 days before the experimentation period.
(§2) L6 myotubes (n=9-12) cultured as described in example 1 were incubated either with angiotensin II (10^-7 mol/l), with a combination of angiotensin II (10^-7 mol/l) and AT-1 receptor blocker losartan (10^-7 mol/L), or with a combination of angiotensin II (10^-7 mol/l), losartan (10^-7 mol/L) and AT-2 receptor blocker PD 123319 (10^-7 mol/L). The uptake of H-3-labeled 2-Deoxy-D-glucose (GE Healthcare Biosciences), which cannot undergo further glycolysis, was measured as follows: • H-3-labeled 2-Deoxy-D-glucose uptake in the differentiated myotubes was analysed as described previously (Ceddia et al., Diabetologia (2005); 48 (1) :132-9) with minor modifications. Differentiated myotubes were serum-starved overnight in DMEM containing 1% glucose before being incubated with angiotensin II, the AT-1 receptor blocker losartan, and/or the AT-2 receptor blocker PD123319. […] Cell lysates were transferred to scintillation vials for radioactivity counting. Non-specific uptake was determined in the presence of cytochalasin B (10 µmol/L) and was subtracted from all values. […]

L6 myotubes [3] = assay: Uptake of H-3-labeled 2-Deoxy-D-glucose in differentiated L6 myotubes, short-term incubation (20 min + 10 min)
Description: as §1, §2

[4] = PD 123319 10^-7 mol/L added to angiotensin II 10^-7 mol/L + losartan 10^-7 mol/L

In the case of `CC[C@H](C)[C@H](NC(=O)[C@@H]1CCCN1C(=O)[C@H](Cc1c[nH]cn1)NC(=O)[C@H](CCCCNC(=O)[C@H](CCCNC(=N)N)NC(=O)OCc1ccccc1)NC(=O)[C@H](Cc1ccc(O)cc1)NC(=O)c1cccnc1)C(=O)O` [CGP-42112A] (Nicotinoyl-YK([Arg-Cbz])HPI-OH), the “glucose uptake compared with the effect of angiotensin II” value (L6 myotubes [1]) was “mimicked”.

In the case of `Cc1cc(Cn2cnc3c2CC(C(=O)O)N(C(=O)C(c2ccccc2)c2ccccc2)C3)ccc1N(C)C` (stereo not shown) [PD123319], the “effect on the glucose uptake enhanced by angiotensin II in the presence of losartan” value (L6 myotubes [2]; [4]) was “completely absent”, the “effect on the CGP-42112A-induced glucose uptake” value (L6 myotubes [3]; PD 123319 10^-7 mol/L added to CGP-42112A 10^-8 mol/L + losartan 10^-7 mol/L) was “completely blocked” and the “effect on the glucose uptake enhanced by angiotensin II in the presence of losartan” value (L6 myotubes [3]; [4]) was “inhibited”. For the same compound, the “uptake of H-3-labeled 2-Deoxy-D-glucose” value (L6 myotubes [3]; substance alone, 10^-7 mol/L, L6 myotubes, n=9-12) was “did not affect”.

For `CCCCc1nc(Cl)c(CO)n1Cc1ccc(-c2ccccc2-c2nn[nH]n2)cc1` [losartan], the “basal glucose uptake of L6 myotubes” value (L6 myotubes [2]; losartan 10^-7 mol/L alone) was “induced” and the “insulin-mediated glucose uptake of L6 myotubes” value (L6 myotubes [2]; losartan 10^-7 mol/L alone, insulin 1 µg/ml) was “induced”.
